# Reference: patent publication US20190153024A1, “NOVEL SALTS AND POLYMORPHS OF SCY-078” (priority 2015, published 2019)
# Columns and labels:
# [1] = Dynamic Vapor Sorption (DVS) water uptake; format: physicochemical; conditions: for solid form by XRPD after DVS: after DVS experiment
# Description: Dynamic Vapor Sorption (DVS)—The term “DVS” means the procedure described in below. The relative humidity at 25° C. was calibrated against deliquescence point of LiCl, Mg(NO3)2 and KCl.
# The DVS of SCY-078 salts were tested according to the above method, using a 10-20 mg sample size. The DVS was measured using a Surface Measurement Systems (SMS) DVS Intrinsic.
# [2] = Kinetic solubility of trifluoroacetate Types A and B and HCl Type I (alternative procedure: SGF, FaSSIF and FeSSIF alternative media, acetate pH 5.5, phosphate pH 6.0 alternative media); conditions: for Form change: residual solid by XRPD
# Description: An alternative media (“FaSSIF alternative media”) was used to study the trifluoroacetate salts (Type A and B) and the HCl Type I salt. More specifically, the media was prepared by weighing 0.17 g of sodium phosphate monobasic (NaH2PO4, anhydrous), 0.021 g of sodium hydroxide, and 0.31 g of sodium chloride into a 50-mL volumetric flask and was dissolve with approximately 48 mL of purified water. The pH was adjusted to exactly 6.5 using 1 M HCl or 1 M NaOH and diluted to volume with purified water. 0.11 g of SIF powder was then added, stirred and sonicated until all the powder was completely dissolved. The solution was equilibrated for 2 hours at RT before use. The solution can be stored at RT for 48 hours or 4° C. for 7 days and should be equilibrated to RT before use
# An alternative media (“FeSSIF alternative media”) was used to study the trifluoroacetate salts (Type A and B) and the HCl Type I salt. More specifically, the media was prepared by transferring 0.41 mL of glacial acid and weighing 0.20 g of sodium hydroxide, 0.59 g of sodium chloride into a 50-mL volumetric flask. This was dissolved with approximately 48 mL of purified water. The pH was adjusted to exactly 5.0 using 1 M HCl or 1 M NaOH and diluted to volume with purified water. 0.56 g of SIF powder was added, stirred and sonicated until all the powder is completely dissolved. The solution can be stored at RT for 48 hours or 4° C. for 7 days and should be equilibrated to RT before use.
# Acetate Buffer (pH 5.5) Preparation—The acetate buffer (pH 5.5) used for the trifluoroacetate salts (Type A and B) and the HCl Type I salt was prepared by placing 0.60 g sodium acetate (NaC2H3O2.3H2O) in a 100-mL volumetric flask, adding 3 mL of 2 M acetic acid solution, and then adding purified water to volume.
# An alternative media (“phosphate (pH 6.0) alternative media”) was used to study the trifluoroacetate salts (Type A and B) and the HCl Type I salt. More specifically, the media was prepared by dissolving 2.72 g of 0.2 M monobasic potassium phosphate (KH2PO4) in purified water, and diluting with purified water t 100 mL. 0.8 g of 0.2 M sodium hydroxide in purified water was diluted with purified water to 100 mL. Then 50 mL of the 0.2 M monobasic potassium phosphate solution was placed in a 200-mL volumetric flask, 5.6 mL of 0.2 M sodium hydroxide solution was added, and then purified water was added to volume.
# The trifluoroacetate salts (Type A and B) and the HCl Type I salt were tested using the following alternative procedure. First, 15 mg, 36 mg or 90 mg solid was weighted into a 4-mL plastic tube, and 3 mL of relevant media was added before leaving the suspension on a rolling incubator (25 r/min). For SCF, 90 mg of solid was used. For FaSSIF, acetate buffer (pH 5.5), and phosphate buffer (pH 6.0), 15 mg solid was used. For FeSSIF, 36 mg of solid was used. 1.0 mL aliquot of the suspension was sampled for centrifugation with the supernatant submitted for HPLC and pH measurement and solid for XRPD characterization at 1 hr, 4 hr and/or 24 hrs.
# The solubility of trifluoroacetate Type A, Type B and HCl Type I was measured in SGF at ambient temperature. Approximately 90 mg of solid sample was weighted into a 4-mL centrifuge tube, and 3 mL of SGF buffer was added before leaving the suspension on a rolling incubator (25 r/min). 1.0 mL aliquot of the suspension was sampled for centrifugation (10000 rpm, 3 mins) the supernatant was analyzed by HPLC and pH measurement and solid by XRPD characterization at 1 hr, 4 hr and 24 hrs, respectively.
# The solubility of trifluoroacetate Type A, Type B and hydrochloride Type I was measured in the FaSSIF alternative media at ambient temperature. Approximately 15 mg of solid sample was weighted into a 4-mL plastic tube, and 3 mL of the media was added before leaving the suspension on a rolling incubator (25 r/min).
# [3] = Physical and chemical stability of trifluoroacetate Types A and B and HCl Type I for 1, 2, 4 and 8 weeks; format: physicochemical; conditions: for physical and chemical stability: 25° C./60% RH, 40° C./75% RH and 60° C.
# Description: High Power Liquid Chromatography (HPLC) Method—An Agilent 1260 HPLC with DAD detector was utilized to test solubility or to test purity and stability. […] System suitability was tested by injecting standard solutions five times in each sample sequence, and the relative standard deviation of the peak areas was less than 2%.
# Physical and chemical stability evaluation of trifluoroacetate Type A, trifluoroacetate Type B, and HCl Type I was performed at 25° C./60% RH, 40° C./75% RH and 60° C. for 1, 2, 4 and 8 weeks. In the experiments, approximately 20 mg of solid was placed into a 1.5-mL glass vial. The vials were stored under 25° C./60% RH (uncapped), 40° C./75% RH (uncapped) and 60° C. (capped) conditions for 8 weeks. XRPD analysis was then employed to check the crystalline form of the solid, and HPLC was utilized to determine the purity profile at 1, 2, 4 and 8 weeks. […] The solid form change of trifluoroacetate Type A at 2 and 4 weeks was postulated to the air-exposure when the sample was taken out for XRPD characterization.
# [4] = Chemical and physical stability of SCY-078 salts on storage (25° C./60% RH, 40° C./75% RH, 60° C.); format: physicochemical; conditions: Type M 4 days, Type S 1 week
# Excerpt: For all compounds tested other than the trifluoroacetate salts (Type A and B) and the HCl Type I and II salts, the conditions and parameters used for measuring solubility are shown in Table 2A and for measuring stability are showing in Table 3A. The conditions and parameters used for the solubility of the trifluoroacetate salts (Type A and B) and the HCl Type I and II salts are shown in Table 2B and for stability are shown in Table 3B.
# [5] = pH value of saturated SCY-078 salt solutions in water; format: physicochemical; conditions: saturated salt solution in H2O, room temperature
# Description: To test the pH, a solution of each compound was equilibrated at room temperature using a rolling incubator (25 rpm) for 1 hour and 24 hours before measurement.
# [6] = 25° C./60% RH (uncapped), 1 week
# [7] = 25° C./60% RH (uncapped), 2 weeks
# [8] = 25° C./60% RH (uncapped), 4 weeks
# [9] = 25° C./60% RH (uncapped), 8 weeks
# [10] = 40° C./75% RH (uncapped), 1 week
# [11] = 40° C./75% RH (uncapped), 2 weeks
# [12] = 40° C./75% RH (uncapped), 4 weeks
# [13] = 40° C./75% RH (uncapped), 8 weeks
compound,measurement,setting,value
CC(C)[C@@H](C)[C@@]1(C)CC[C@]2(C)[C@H]3CC[C@@H]4[C@@]5(COC[C@]4(C)[C@@H](OC[C@](C)(N)C(C)(C)C)[C@H](n4ncnc4-c4ccncc4)C5)C3=CC[C@@]2(C)[C@@H]1C(=O)O.Cl [SCY-078 HCl Type I],water uptake (DVS),[1]; 25° C./80% RH,6.1 wt %
same,solid form by XRPD after DVS,[1],No form change
same,Form change,"[2]; FaSSIF alternative media, 1 hr",No
same,Form change,"[2]; FaSSIF alternative media, 4 hrs",No
same,Form change,"[2]; FaSSIF alternative media, 24 hrs",No
same,form change of residual solid in FaSSIF alternative media,"[2]; FaSSIF alternative media, ambient temperature",no form change was observed
same,Form change,"[2]; FeSSIF alternative media, 1 hr",No
same,Form change,"[2]; FeSSIF alternative media, 4 hrs",No
same,Form change,"[2]; FeSSIF alternative media, 24 hrs",No
same,form change of residual solid in FeSSIF alternative media,"[2]; FeSSIF alternative media, ambient temperature",no form change was observed
same,Form change,"[2]; SGF, 1 hr",No
same,Form change,"[2]; SGF, 4 hrs",No
same,Form change,"[2]; SGF, 24 hrs",No
same,form change of residual solid in SGF,"[2]; SGF, ambient temperature",no form change was observed
same,form change of residual solid in acetate buffer,"[2]; acetate buffer pH 5.5, ambient temperature",converted to Type II
same,solubility in acetate buffer (comparison),"[2]; acetate buffer pH 5.5, ambient temperature, 4 hr and 24 hrs",lower solubility
same,Form change,"[2]; phosphate (pH 6.0) alternative media, 4 hrs",No
same,Form change,"[2]; phosphate (pH 6.0) alternative media, 24 hrs",No
same,form change of residual solid in phosphate (pH 6.0) alternative media,"[2]; phosphate (pH 6.0) alternative media, ambient temperature",No form change was observed
same,solubility in phosphate (pH 6.0) alternative media (comparison),"[2]; phosphate (pH 6.0) alternative media, ambient temperature, 4 hr and 24 hrs",higher solubility
same,HPLC purity,[3]; [6],99.9%
same,Solid form,[3]; [6],Type I
same,HPLC purity,[3]; [7],99.9%
same,Solid form,[3]; [7],Type I
same,HPLC purity,[3]; [8],99.9%
same,Solid form,[3]; [8],Type I
same,HPLC purity,[3]; [9],99.9%
same,Solid form,[3]; [9],Type I
same,physical and chemical stability,[3]; 8 weeks,physically and chemically stable
same,HPLC purity,[3]; [10],99.9%
same,Solid form,[3]; [10],Type I
same,HPLC purity,[3]; [11],99.9%
same,Solid form,[3]; [11],Type I
same,HPLC purity,[3]; [12],99.9%
same,Solid form,[3]; [12],Type I
same,HPLC purity,[3]; [13],99.9%
same,Solid form,[3]; [13],Type I
same,HPLC purity,"[3]; 60° C. (capped), 1 week",99.9%
same,Solid form,"[3]; 60° C. (capped), 1 week",Type I
same,HPLC purity,"[3]; 60° C. (capped), 2 weeks",99.9%
same,Solid form,"[3]; 60° C. (capped), 2 weeks",Type I
same,HPLC purity,"[3]; 60° C. (capped), 4 weeks",99.9%
same,Solid form,"[3]; 60° C. (capped), 4 weeks",Type I
same,HPLC purity,"[3]; 60° C. (capped), 8 weeks",99.9%
same,Solid form,"[3]; 60° C. (capped), 8 weeks",Type I
same,Initial HPLC purity,[3]; Initial,99.9%
CC(C)[C@@H](C)[C@@]1(C)CC[C@]2(C)[C@H]3CC[C@@H]4[C@@]5(COC[C@]4(C)[C@@H](OC[C@](C)(N)C(C)(C)C)[C@H](n4ncnc4-c4ccncc4)C5)C3=CC[C@@]2(C)[C@@H]1C(=O)O.O=C(O)C(F)(F)F [SCY-078 Trifluoroacetate Type B],water uptake (DVS),[1]; 25° C./80% RH,3.4 wt %
same,solid form by XRPD after DVS,[1],converted to Type A
same,form change of residual solid in FaSSIF alternative media,"[2]; FaSSIF alternative media, ambient temperature, listed as Trifluoroacetate Type B",converted to Type A
same,form change of residual solid in FeSSIF alternative media,"[2]; FeSSIF alternative media, ambient temperature, listed as trifluoroacetate Type B",no form change was observed
same,form change of residual solid in SGF,"[2]; SGF, ambient temperature, listed as Trifluoroacetate Type B",converted to Type A
same,form change of residual solid in acetate buffer,"[2]; acetate buffer pH 5.5, ambient temperature, listed as trifluoroacetate Type B",converted to Type A
same,form change of residual solid in phosphate (pH 6.0) alternative media,"[2]; phosphate (pH 6.0) alternative media, ambient temperature, listed as trifluoroacetate Type B",converted to Type A at 24 hrs
same,physical and chemical stability,"[3]; 8 weeks, listed as Trifluoroacetate Type B","chemically stable, however, physically unstable"
CC(C)[C@@H](C)[C@@]1(C)CC[C@]2(C)[C@H]3CC[C@@H]4[C@@]5(COC[C@]4(C)[C@@H](OC[C@](C)(N)C(C)(C)C)[C@H](n4ncnc4-c4ccncc4)C5)C3=CC[C@@]2(C)[C@@H]1C(=O)O.O=C(O)CC(O)(CC(=O)O)C(=O)O [SCY-078 citrate Type M],water uptake (DVS),"[1]; 25° C., 80% RH",11.0%
same,solid form by XRPD after DVS,[1],converts to partially amorphous
same,physical and chemical stability,[4]; closed dish 60° C.,impurity of SCY-078 citrate Type M increased
same,physical and chemical stability,"[4]; open dish 25° C., 60% RH",physically and chemically stable
same,physical and chemical stability,"[4]; open dish 40° C., 75% RH",One diffraction peak change and partial crystallinity loss
CC(C)[C@@H](C)[C@@]1(C)CC[C@]2(C)[C@H]3CC[C@@H]4[C@@]5(COC[C@]4(C)[C@@H](OC[C@](C)(N)C(C)(C)C)[C@H](n4ncnc4-c4ccncc4)C5)C3=CC[C@@]2(C)[C@@H]1C(=O)O.O=C(O)CC(O)(CC(=O)O)C(=O)O [SCY-078 citrate Type S],water uptake (DVS),"[1]; 25° C., 80% RH",8.2%
same,solid form by XRPD after DVS,[1],peak shifts
same,physical and chemical stability,[4]; closed dish 60° C.,physically and chemically stable
same,physical and chemical stability,"[4]; open dish 25° C., 60% RH",Diffraction peak shifts were observed
same,physical and chemical stability,"[4]; open dish 40° C., 75% RH",Diffraction peak shifts were observed
CC(C)[C@@H](C)[C@@]1(C)CC[C@]2(C)[C@H]3CC[C@@H]4[C@@]5(COC[C@]4(C)[C@@H](OC[C@](C)(N)C(C)(C)C)[C@H](n4ncnc4-c4ccncc4)C5)C3=CC[C@@]2(C)[C@@H]1C(=O)O.O=C(O)CNC(=O)c1ccccc1.O=C(O)CNC(=O)c1ccccc1 [SCY-078 hippurate Type B],water uptake (DVS),"[1]; 25° C., 80% RH",~3.5%
same,solid form by XRPD after DVS,[1],converted to SCY-078 hippurate Type A
same,pH 1 hr,[5]; equilibrated 1 hour,4.6
same,pH 24 hrs,[5]; equilibrated 24 hours,4.2
